Results taken from the NIST ThermoML archive (doi:10.1016/j.jct.2017.10.014).

Columns and labels:
[1] = xn = mol fraction of the nth substance listed; conditions: 100 kPa, Liquid, Vibrating tube method
[2] = mn = molality of the nth substance listed, in mol/kg; conditions: 100 kPa, Liquid, Capillary tube (Ostwald / Ubbelohde) method

CC(C)(CO)[C@@H](O)C(=O)NCCCO [d-Panthenol] + O
Conditions	mass density, 293.15 K [kg/m3]	mass density, 298.15 K [kg/m3]	mass density, 303.15 K [kg/m3]	mass density, 308.15 K [kg/m3]	mass density, 313.15 K [kg/m3]	viscosity, 293.15 K [mPa·s]	viscosity, 298.15 K [mPa·s]	viscosity, 303.15 K [mPa·s]	viscosity, 308.15 K [mPa·s]	viscosity, 313.15 K [mPa·s]
[1], x1 = 0.0036	1004.95	1003.69	1002.18	1000.46	998.5	–	–	–	–	–
[1], x1 = 0.0054	1008.18	1006.88	1005.33	1003.56	1001.53	–	–	–	–	–
[1], x1 = 0.0071	1011.3	1009.95	1008.35	1006.55	1004.49	–	–	–	–	–
[1], x1 = 0.0089	1014.36	1012.97	1011.34	1009.5	1007.4	–	–	–	–	–
[1], x1 = 0.0107	1017.42	1016	1014.32	1012.45	1010.32	–	–	–	–	–
[1], x1 = 0.0124	1020.22	1018.76	1017.07	1015.14	1012.99	–	–	–	–	–
[1], x1 = 0.0142	1023.06	1021.57	1019.84	1017.89	1015.72	–	–	–	–	–
[1], x1 = 0.0248	1039.61	1037.84	1035.87	1033.67	1031.28	–	–	–	–	–
[1], x1 = 0.031	1049.02	1046.69	1044.71	1042.43	1039.83	–	–	–	–	–
[1], x1 = 0.0376	1055.92	1053.81	1051.55	1049.07	1046.45	–	–	–	–	–
[1], x1 = 0.0501	1068.98	1066.6	1064.45	1062.19	1059.96	–	–	–	–	–
[1], x1 = 0.0996	1102.82	1099.84	1096.7	1093.45	1090.55	–	–	–	–	–
[1], x1 = 0.1997	1134.36	1130.9	1127.26	1123.64	1119.93	–	–	–	–	–
[1], x1 = 0.2495	1141.94	1138.2	1134.68	1130.9	1127.21	–	–	–	–	–
[1], x1 = 0.2871	1146.56	1142.9	1139.2	1135.41	1131.52	–	–	–	–	–
[1], x1 = 0.342	1151.05	1147.23	1143.4	1139.69	1135.87	–	–	–	–	–
[1], x1 = 0.4007	1154.55	1150.87	1146.9	1143.02	1139.25	–	–	–	–	–
[1], x1 = 0.4958	1158.52	1154.87	1151.08	1147.04	1143.29	–	–	–	–	–
[1], x1 = 0.5944	1160.64	1157.16	1153.51	1149.72	1145.77	–	–	–	–	–
[1], x1 = 0.708	1162.75	1159.25	1155.76	1152.16	1148.24	–	–	–	–	–
[1], x1 = 0.8067	1163.58	1160.22	1156.74	1153.27	1149.57	–	–	–	–	–
[1], x1 = 0.8753	1164.26	1160.86	1157.46	1153.96	1150.3	–	–	–	–	–
[1], x1 = 1	1165.18	1161.68	1158.27	1154.96	1151.46	–	–	–	–	–
[2], m1 = 0.01	–	–	–	–	–	1.009	0.896	0.803	0.724	0.657
[2], m1 = 0.05	–	–	–	–	–	1.039	0.923	0.826	0.744	0.675
[2], m1 = 0.1001	–	–	–	–	–	1.078	0.957	0.855	0.769	0.697
[2], m1 = 0.1989	–	–	–	–	–	1.159	1.027	0.917	0.822	0.743
[2], m1 = 0.3002	–	–	–	–	–	1.246	1.1	0.98	0.877	0.791
[2], m1 = 0.4006	–	–	–	–	–	1.334	1.173	1.045	0.932	0.839
[2], m1 = 0.4997	–	–	–	–	–	1.421	1.253	1.105	0.99	0.887
